The term IC50 denotes the concentration that gives 50% inhibition.

The test system of this test is P. falciparum 3D7 growth, pLDH absorbance. Put plainly: blood-stage malaria parasite growth potency – strain 3D7, dose response (AID 2305).
With `O=C(NCCCc1ccccc1)c1csc(C2CCCN(C(=O)c3ccc(O)c(-c4ccccc4)c3)C2)n1` (stereo not given), the IC50 came out at 910 nM.
For the compound `COc1cc2nc(N3CCC(CCCC4CCNCC4)CC3)nc(NCc3ccccn3)c2cc1OC`, the IC50 was 760 nM.
In the case of `CCOC(=O)c1ccc(NC(=O)N[C@@H](Cc2ccccc2)C(=O)NC2CCN(Cc3ccc(O)c(OC)c3)C2)cc1` (stereo not given in full) it was 990 nM; in that of `Oc1cccc(-c2cnc3ccc(NCc4ccc(F)cc4)nn23)c1`, 1080 nM.
In the case of `CCCN(Cc1nnc(-c2ccco2)o1)C(=O)C1CCCN(C(=O)c2ccc(Cl)cc2)C1` (stereo not given) it was 520 nM; in that of `COc1ccc(CCNCc2ccc3nc(N)cc(C)c3c2)cc1`, 210 nM.
For the compound `OC(CNC1CCCCC1)Cn1c2ccc(Br)cc2c2cc(Br)ccc21` (stereo not given), the IC50 came out at 300 nM.
With `CC(=O)Nc1sc(C)c(C)c1CN1CCc2ccccc2C1` the figure was 620 nM.
With `N#Cc1ccc(CN2CCC(Oc3ccc(NC(=O)c4cccs4)cc3Cl)CC2)cc1` the figure was 580 nM; with `Cc1ccc2c(NC(=O)Nc3ccc(N(C)C)cc3)cc(C)nc2c1`, 820 nM; with `COc1cc(Cc2cnc(N)nc2N)cc(CC(C)O)c1O` (stereo not given), 840 nM.
Turning to `Cc1ccc(NC(=S)NC2CCN(CCCCCNC(=O)/C=C/c3ccc(Cl)c(Cl)c3)CC2)cc1Cl`, the IC50 worked out at 990 nM.
With `COc1ccc(CNC2Cc3ccccc3C2)cc1-c1ccc(S(=O)(=O)NCCN2CCCC2)s1` the figure was 190 nM; with `O=C(NCCC1CCN(CCc2c[nH]c3ccccc23)CC1)Nc1ccc(Cl)c(Cl)c1`, 830 nM.
Compound `Cc1ccc2c(C3=CCN(CCCCC4(C)C(=O)Nc5c(F)cccc54)CC3)c(C)[nH]c2c1` (stereo not given) gave an IC50 of 270 nM.
In the case of `CC(C)NCc1ccc(-c2cccc(-c3nc4ccc(F)cc4[nH]3)c2)cc1` it was 410 nM; in that of `Cc1cc(-c2nc3ccc(C(=O)NCc4ccccc4)cc3n2C2CCN(C(=O)c3ccc(-c4ccccc4)cc3)CC2)ccn1`, 900 nM.
For `Cc1[nH]c(CNCCCNc2cc(=O)c3ccccc3[nH]2)c(Br)c1Br`, the IC50 worked out at 1040 nM.
Compound `COc1cc(Cc2cnc(N)nc2N)ccc1OCc1cccc(Oc2ccccc2)c1` displayed an IC50 of 1330 nM.
In turn, `COc1ccc(C2CCN(CCCNC(=O)c3ccc(NC(=O)c4ccc(Cl)cc4)cc3)CC2)c(OC)c1` gave an IC50 of 760 nM.
`c1cc(-c2nc3ccccc3[nH]2)nc(-c2nc3ccccc3[nH]2)c1` had an IC50 of 1120 nM.
In the case of `COc1ccc2nc(C)cc(Nc3ccc(N4CCN(C)CC4)cc3)c2c1` it was 790 nM; in that of `CC(C)CNCc1ccc(-c2ccc(CN(CCCN3CCN(C)CC3)C(=O)/C=C/c3ccccc3)cc2)cc1`, 920 nM; in that of `Cc1cc(NN=Cc2ccc(Cl)cc2)c2ccc(F)cc2n1`, 760 nM.
Consider `COc1ccc2c(NN=Cc3cccc([N+](=O)[O-])c3)cc(C)nc2c1`, for which the IC50 amounted to 560 nM.
`CON=C1CCC(Cn2ccnc2)(c2ccc(Cl)cc2Cl)CC1` (stereo not given) returned an IC50 of 880 nM.
In the case of `COc1ccc(-c2c(C(F)(F)F)nn(C)c2NC(=O)Nc2ccc(F)cc2F)cc1` it was 800 nM.
In the case of `Cc1nc2nc(N)nc(N)c2c(C)c1Cc1cccc(C(N)=O)c1` it was 1080 nM; in that of `O=C(Nc1cccc(CN2CCCN(Cc3cccnc3)CC2)c1)c1cc2ccccc2s1`, 1470 nM; in that of `O=C(CSc1nn(-c2ccccc2)c(=S)s1)c1c[nH]c2ccccc12`, 1090 nM.
`COc1cc(O)c2c(=O)c(OC)c(-c3cccc(Cl)c3OCC(=O)O)oc2c1OC` had an IC50 of 590 nM.
In the case of `O=C(Nc1ccc(-c2nc3ccccc3[nH]2)cc1)C1CCCN(C2CCC2)C1` (stereo not given) it was 1350 nM; in that of `Cc1cc(C)c(C)c(S(=O)(=O)N2CCCCC(c3ccc(F)c(F)c3)=N2)c1C`, 710 nM.
In the case of `O=C(Nc1ccc2c(c1)CCN(C1CCC1)CC2)c1ccc(-n2ccnc2)cn1` it was 370 nM; in that of `COc1cccc(NC(=O)NCCNc2ccnc(Nc3ccc(F)cc3)n2)c1`, 920 nM.
With `O=C(Nc1cccc(-c2cccc(-c3nc4ccc(F)cc4[nH]3)c2)c1)c1ccoc1` the figure was 330 nM; with `CC(C)CNCc1cccc(-c2ccc(CN(C(=O)c3cccs3)C3CCN(Cc4ccccc4)CC3)cc2)c1`, 1010 nM.
As for `COCCOc1cc(C)c(C2CCN(CCCCNC(=O)c3ccc(NC(=O)c4ccc(Cl)cc4)cc3)CC2)cc1C`, the IC50 stood at 950 nM.
In the case of `CC(Cc1ccc(OCCN2CCN(c3cccc(C(F)(F)F)c3)CC2)cc1)NCC(O)c1cccc(C(F)(F)F)c1` (stereo not given) it was 180 nM; in that of `Oc1ccc(-c2nc3c4cc(I)ccc4c4ccc(I)cc4c3[nH]2)cc1`, 970 nM.
As for `CCCCc1ccc(-c2c(N)nc(N)nc2CC)cc1`, the IC50 was 950 nM.
With `COc1ccc(C(=O)c2ccc3[nH]cc(C4=CCN(C)CC4)c3c2)cc1` the figure was 1050 nM; with `CCn1c(C)cc(C=C2SC(=Nc3ccccc3)NC2=O)c1C`, 680 nM; with `O=C(Nc1ccc(Cl)c(Cl)c1)N1CCc2ccc(OCCCN3CCCCC3)cc2CC1`, 1520 nM.
As for `CCOc1ccc2c(NN=Cc3cc(OC)c(OC)c(OC)c3)cc(C)nc2c1`, the IC50 was 610 nM.
In the case of `COc1ccc2ncc(F)c(CCN3CC[C@@H](CNCc4cc(C)c5c(c4)OCCO5)C3)c2n1` it was 890 nM; in that of `CNC(=O)NC1=NC(C)(C)N(OCCCOc2cc(Cl)c(Cl)cc2Cl)C(N)=N1`, 930 nM; in that of `O=C(NOCCOc1ccccc1)c1ccccc1`, 320 nM.
As for `CCCNC(=O)Nc1ccc(N(C)c2ccnc(NC3CC3)n2)cc1`, the half-maximal inhibitory concentration (IC50) worked out at 620 nM.
Compound `CCN(CC)CCNC(=O)c1ccc(NC(=O)c2ccc(-c3cc(NC(=O)CC4CCCC4)ccc3C)cc2)cc1` showed an IC50 of 560 nM.
With `Cc1cc2nc(-c3ccc(C(=O)NCCCc4ccccc4)cc3)[nH]c2cc1C` the figure was 1180 nM; with `Cc1cc2nc(-c3ccc(C(=O)NC4CCN(Cc5ccccc5)CC4)cc3)[nH]c2cc1C`, 740 nM.
With `O=C(Nc1ccc(-c2cccc(-c3nc4ccccc4[nH]3)c2)cc1)Nc1ccc(F)c(F)c1F` the figure was 180 nM.
In turn, `CC1CN(Cc2ccccc2)CCN1c1ccc(NC(=O)c2ccc(F)cc2)cc1` (stereo not given) registered an IC50 of 1010 nM.
Compound `COc1ccc2ccccc2c1CNCCCCCCNCc1c(OC)ccc2ccccc12` had an IC50 of 710 nM.
Consider `O=C(c1ccc2ccccc2n1)N1CCCc2cc(Br)ccc21`, for which the 50% inhibitory concentration (IC50) stood at 860 nM.
With `CC[C@H]1CN2CC[C@@H]1C[C@H]2[C@H](O)c1cc(N2CCCC(C)(C)C2)nc2ccc(OC)cc12` the figure was 340 nM; with `COCCNC(=O)C1CCN(C(c2ccc(Cl)cc2)c2ccc(Cl)cc2)CC1`, 550 nM; with `CC(=O)Nc1ccc(CN2CCC(CNC(=O)c3cc(-c4cccc(C(F)(F)F)c4)cs3)C2)cc1` (stereo not given), 1100 nM.
In the case of `COc1ccccc1-c1cccc(Nc2c(Nc3ccc(Cl)cc3)c(=O)c2=O)c1` it was 880 nM.
`CCc1cc(COc2ccc(CNCCC(C)C)cc2I)c(OCc2ccccc2)c(COc2ccc(CNCCC(C)C)cc2I)c1` returned an IC50 of 1110 nM. The IC50 values of the last two compounds are within 1.5-fold of each other.
In the case of `CCCN(C(=O)c1ccccc1C)c1nnc(-c2cccc(C)c2)s1` it was 900 nM; in that of `O=C(CN1CCC(NCc2cnc(-c3ccc(Cl)cc3)[nH]2)CC1)N1CCc2ccccc21`, 650 nM; in that of `Cc1ccc(Nc2nc(N)c3ccccc3n2)cc1`, 840 nM.
As for `Fc1ccccc1C=NNc1ccnc2ccccc12`, the half-inhibitory concentration (IC50) was determined as 890 nM.
The compound `C=CCc1cc(Cc2cnc(N)nc2N)c2ccc(C)nc2c1O` displayed an IC50 of 1040 nM.
Take `COc1ccc(NC(=O)C2c3ccccc3C(=O)N(C3CCCC3)C2c2cccs2)cc1OC` (stereo not given): the IC50 was found to be 1090 nM.
In the case of `Cc1cc2c3c(N)nc(N)nc3ccc2n1C` it was 90 nM; in that of `CC(C)Cn1c(N)cc(=O)n(C)c1=O`, 980 nM; in that of `COc1ccc(CCN(C)CCCN2CCC(NC(=O)c3cccc4c(=O)c5ccccc5sc34)CC2)cc1OC`, 790 nM.
In the case of `CN1CCc2cc(Br)c(O)cc2C1Cc1ccccc1Cl` (stereo not given) it was 670 nM; in that of `CNC(=O)c1cnc(Nc2ccc(OCC(O)CN(C)C)cc2)nc1Nc1cccc(Br)c1` (stereo not given), 120 nM; in that of `O=C1c2ccccc2CCC1CCN1CC=C(c2c[nH]c3ccccc23)CC1` (stereo not given), 700 nM.
`CN1CCN(CC(=O)Nc2cccc(-c3ccc(-c4nc5ccc(C(F)(F)F)cc5[nH]4)s3)c2)CC1` showed an IC50 of 310 nM.
In the case of `Cc1ccc(NC(=O)c2ccc3ncccc3c2)cc1OC1CCN(Cc2ccsc2)CC1` it was 930 nM.
In the case of `COc1ccc(-c2cccc(NC(=O)c3ccc(Cl)cc3)c2)cc1CNC(C)C` it was 690 nM; in that of `CC(=O)Oc1c(Br)c(C)nc(C)c1-c1ccc(Oc2ccc(OC(F)(F)F)cc2)cc1`, 130 nM; in that of `O=C(/C=C/c1ccc(Cl)c(Cl)c1)NCCCCCN1CCCC(C(=O)Nc2ccc(Cl)c(Cl)c2)C1` (stereo not given), 780 nM.
Consider `COc1ccc(C(=O)C2CCN(CCCCNC(=O)c3ccc(NC(=O)c4ccc(Cl)cc4)cc3)CC2)c(OC)c1`, for which the concentration for half-maximal inhibition (IC50) is 770 nM.
`O=C(Nc1ccc(OC2CCN(Cc3ccc(F)cc3)C2)cc1)c1cccs1` (stereo not given) registered an IC50 of 640 nM.
`Cc1ccc(-c2nnc3c4ccccc4c(C)nn23)cc1S(=O)(=O)N1CCN(CCO)CC1`: the IC50 was found to be 670 nM.
In the case of `CC(c1cccc(Nc2nccc(-c3c(-c4cccc(NC(=O)c5c(F)cccc5F)c4)nn4ccccc34)n2)c1)S(C)(=O)=O` (stereo not given) it was 60 nM.
With `O=C(NC1CC1)c1ccc(Nc2nccc(-c3c(-c4cccc(NC(=O)c5c(F)cccc5F)c4)nn4ccccc34)n2)cc1` the figure was 410 nM.
Take `COC(=O)c1cccc(CNCc2cccc(-c3cccc(-c4nc5c(C)cccc5[nH]4)c3)c2)c1`: the IC50 amounted to 190 nM.
With `O=S(=O)(c1ccccc1OC(F)(F)F)C1C[C@H]2CC[C@@H](C1)N2S(=O)(=O)c1cccc(C(F)(F)F)c1` (stereo not given in full) the figure was 670 nM.
With `COc1cc2nc(NCCn3ccnc3C)nc(NCCc3ccccc3)c2cc1OC` the figure was 730 nM; with `COc1cccc(Nc2nc(Nc3cccc(C#N)c3)cc(-c3ccncc3)n2)c1`, 760 nM.
With `Nc1c2c(nc3ccc(NC(=O)c4ccc([N+](=O)[O-])cc4)cc13)CCCC2` the figure was 240 nM; with `CC(C)n1c(CC2CCN(CC3CCN(C(=O)/C=C/c4ccc(Cl)c(Cl)c4)CC3)CC2)nc2ccccc21`, 610 nM.
`Cn1nc(-c2ccc(NC(=O)Nc3ccc4ccccc4c3)c(F)c2)c2cnc(NCCN3CCOCC3)nc21`: the IC50 amounted to 1020 nM. This IC50 lies about 1.7-fold higher than the previous one.
